Converted amounts (≈) assume the structure as drawn. Where two headings read alike, the source gives them in different places.
Tests used:
Thermodynamic solubility = format: physicochemical; settings: aqueous buffer, thermodynamic from solid; phosphate buffered saline, pH 7.4; ambient temperature overnight
Method: Test compound (2.5 mg of solid; n=1) is weighed in a clear glass vial and buffer (0.5 mL) is added (phosphate buffered saline, pH 7.4). The solution is agitated at ambient temperature overnight using a vial roller system. […] Duplicate aliquots (50 μL) are sampled from the filtrate and diluted with one volume of 0.1 N hydrochloric acid and methanol (1:1 v/v) before analysis by HPLC-UV. […] The concentration of test compound in the filtrate is quantified relative to the concentration standard.
Analysis is performed using a gradient HPLC-UV system with a total cycle time of six minutes.

[1] = Caco-2 permeability (bi-directional; pH 7.4/pH 7.4); format: in vitro ADME; settings: human; for Papp A→B at 120 min, 10 μM: Caco-2, pH 7.4, read-out: Permeability (cm^2/s × 10^6)
Method: Caco-2 cells are used as an in vitro model of the human intestinal epithelium and permit assessment of the intestinal permeability of potential drugs. Test compound is added to either the apical or basolateral side of a confluent monolayer of Caco-2 cells and permeability is measured by monitoring the appearance of the test compound on the opposite side of the membrane using LC-MS/MS. Apparent permeability (Papp) coefficients, efflux ratio for the test compound and recovery values were determined.
To measure the permeability of test compound in the apical to basolateral (A-B) and basolateral to apical (B-A) direction across Caco-2 cells.
Caco-2 cells obtained from the ATCC are used between passage numbers 40-60. Cells are seeded on to Millipore Multiscreen Caco-2 plates at 1×10^5 cells/cm^2. They are cultured for 20 days in DMEM and media is changed every two or three days. On day 20 the permeability study is performed.
On day 20, the monolayers are prepared by rinsing both basolateral and apical surfaces twice with HBSS at 37° C. Cells are then incubated with HBSS in both apical and basolateral compartments for 40 min to stabilize physiological parameters. HBSS is then removed from the apical compartment and replaced with test compound dosing solutions. […] The fluorescent integrity marker lucifer yellow is also included in the dosing solution. Analytical standards are made from dosing solutions. The apical compartment inserts are then placed into ‘companion’ plates containing fresh HBSS. For basolateral to apical (B-A) permeability determination the experiment is initiated by replacing buffer in the inserts then placing them in companion plates containing dosing solutions. At 120 minutes the companion plate is removed and apical and basolateral samples diluted for analysis by LC-MS/MS. Test compound permeability was assessed in duplicate. On each plate, compounds of known permeability characteristics were run as controls.
Test and control compounds were quantified by LC-MS/MS cassette analysis using a 5-point calibration with appropriate dilution of the samples. Cyprotex generic analytical conditions were used. The starting concentration (C0) and experimental recovery were calculated from both apical and basolateral compartment concentrations.
The integrity of the monolayers throughout the experiment was checked by monitoring lucifer yellow permeation using fluorimetric analysis. Lucifer yellow permeation is low if monolayers have not been damaged. […] If lucifer yellow Papp values are above QC limits in both replicate wells for a test compound, the compound was re-tested.
Data Analysis: The permeability coefficient for each compound (Papp) is calculated from the following equation: […]
wherein dQ/dt is the rate of permeation of the drug across the cells, C0 is the donor compartment concentration at time zero and A is the area of the cell monolayer. C0 is obtained from analysis of donor and receiver compartments at the end of the incubation period. It is assumed that all of the test compound measured after 120 minutes incubation was initially present in the donor compartment at 0 minutes. An efflux ratio (ER) is derived as follows:
Talinolol (a known P-gp substrate) is also included as a control compound to assess whether functional P-gp is present in the Caco-2 cell monolayer.

ABL [2] = molecular target: T1, ABL (Homo sapiens, UniProt P00519); assay: Off-chip mobility-shift kinase assay (Caliper LABCHIP), ABL; settings: for ABL AVG % Activity at 1.0E−09: concentration 1.0E−09; for ABL AVG % Activity at 1.0E−10: concentration 1.0E−10; for ABL AVG % Activity at 3.0E−09: concentration 3.0E−09; for ABL AVG % Activity at 3.0E−10: concentration 3.0E−10; for ABL AVG % Activity at 1.0E−11: concentration 1.0E−11; for ABL AVG % Activity at 3.0E−11: concentration 3.0E−11
PDGFRβ = PDGFRβ (Homo sapiens, UniProt P09619); assay: Off-chip mobility-shift kinase assay (Caliper LABCHIP), PDGFR
cKIT = cKIT (Homo sapiens, UniProt P10721); assay: Off-chip mobility-shift kinase assay (Caliper LABCHIP), C-kit
ABL [3] = molecular target: T1, ABL
[4] = imatinib-corresponding compounds
[5] = dasatinib-corresponding compounds

cKIT, sequence (P10721 26-976): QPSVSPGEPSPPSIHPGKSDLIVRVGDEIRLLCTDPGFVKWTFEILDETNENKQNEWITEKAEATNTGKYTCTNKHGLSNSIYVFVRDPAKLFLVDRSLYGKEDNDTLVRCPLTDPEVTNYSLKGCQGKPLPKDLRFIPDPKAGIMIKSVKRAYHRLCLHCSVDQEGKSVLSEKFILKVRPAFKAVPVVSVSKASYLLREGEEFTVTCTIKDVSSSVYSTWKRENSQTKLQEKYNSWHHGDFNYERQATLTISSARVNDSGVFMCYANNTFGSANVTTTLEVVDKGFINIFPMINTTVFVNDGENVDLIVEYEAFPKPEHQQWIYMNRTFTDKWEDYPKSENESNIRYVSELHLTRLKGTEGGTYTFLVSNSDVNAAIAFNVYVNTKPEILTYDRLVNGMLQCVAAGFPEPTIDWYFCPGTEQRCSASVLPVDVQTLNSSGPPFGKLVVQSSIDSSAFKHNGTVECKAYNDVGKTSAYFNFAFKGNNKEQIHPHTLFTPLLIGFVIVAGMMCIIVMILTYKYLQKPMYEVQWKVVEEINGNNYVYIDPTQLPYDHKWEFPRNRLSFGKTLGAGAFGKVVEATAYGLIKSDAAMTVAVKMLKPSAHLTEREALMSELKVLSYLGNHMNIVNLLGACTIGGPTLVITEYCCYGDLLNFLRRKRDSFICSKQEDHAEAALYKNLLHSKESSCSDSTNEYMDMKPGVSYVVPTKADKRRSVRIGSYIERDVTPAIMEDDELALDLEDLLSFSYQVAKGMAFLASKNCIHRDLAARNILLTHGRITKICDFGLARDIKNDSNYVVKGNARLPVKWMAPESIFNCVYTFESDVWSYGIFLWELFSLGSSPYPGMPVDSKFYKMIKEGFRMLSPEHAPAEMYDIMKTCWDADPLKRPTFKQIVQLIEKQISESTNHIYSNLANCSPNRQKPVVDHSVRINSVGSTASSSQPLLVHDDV
T1 sequence (P00519 whole entry): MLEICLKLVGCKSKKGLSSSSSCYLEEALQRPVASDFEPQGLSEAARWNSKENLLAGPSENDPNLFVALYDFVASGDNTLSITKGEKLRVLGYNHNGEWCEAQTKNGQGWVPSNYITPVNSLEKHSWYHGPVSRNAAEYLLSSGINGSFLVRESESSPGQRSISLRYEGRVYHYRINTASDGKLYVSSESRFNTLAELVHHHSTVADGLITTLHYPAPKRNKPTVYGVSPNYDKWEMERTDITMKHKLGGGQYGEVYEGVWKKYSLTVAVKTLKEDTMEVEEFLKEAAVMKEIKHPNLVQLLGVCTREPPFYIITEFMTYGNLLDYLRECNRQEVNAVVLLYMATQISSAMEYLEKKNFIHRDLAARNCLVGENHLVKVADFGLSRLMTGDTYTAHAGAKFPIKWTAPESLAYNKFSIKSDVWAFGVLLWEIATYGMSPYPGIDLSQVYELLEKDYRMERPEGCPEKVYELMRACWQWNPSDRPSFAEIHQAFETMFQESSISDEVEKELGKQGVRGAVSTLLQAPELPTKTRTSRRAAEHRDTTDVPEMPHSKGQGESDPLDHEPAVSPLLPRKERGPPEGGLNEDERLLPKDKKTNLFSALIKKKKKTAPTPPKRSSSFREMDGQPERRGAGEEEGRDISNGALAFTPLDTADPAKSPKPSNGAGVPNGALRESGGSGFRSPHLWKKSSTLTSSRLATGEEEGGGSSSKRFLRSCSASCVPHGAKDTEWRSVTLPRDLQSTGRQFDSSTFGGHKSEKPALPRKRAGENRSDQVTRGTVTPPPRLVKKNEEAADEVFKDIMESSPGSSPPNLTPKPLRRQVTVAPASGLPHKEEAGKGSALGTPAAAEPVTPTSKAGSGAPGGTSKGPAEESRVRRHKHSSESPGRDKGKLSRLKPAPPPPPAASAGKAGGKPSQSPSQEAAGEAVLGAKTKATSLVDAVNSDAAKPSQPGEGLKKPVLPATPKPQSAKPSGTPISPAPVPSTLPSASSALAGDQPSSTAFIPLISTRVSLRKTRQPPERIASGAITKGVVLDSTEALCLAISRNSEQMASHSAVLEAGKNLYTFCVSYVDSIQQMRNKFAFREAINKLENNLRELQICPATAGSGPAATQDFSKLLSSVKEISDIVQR
PDGFRβ, sequence (P09619 33-1106): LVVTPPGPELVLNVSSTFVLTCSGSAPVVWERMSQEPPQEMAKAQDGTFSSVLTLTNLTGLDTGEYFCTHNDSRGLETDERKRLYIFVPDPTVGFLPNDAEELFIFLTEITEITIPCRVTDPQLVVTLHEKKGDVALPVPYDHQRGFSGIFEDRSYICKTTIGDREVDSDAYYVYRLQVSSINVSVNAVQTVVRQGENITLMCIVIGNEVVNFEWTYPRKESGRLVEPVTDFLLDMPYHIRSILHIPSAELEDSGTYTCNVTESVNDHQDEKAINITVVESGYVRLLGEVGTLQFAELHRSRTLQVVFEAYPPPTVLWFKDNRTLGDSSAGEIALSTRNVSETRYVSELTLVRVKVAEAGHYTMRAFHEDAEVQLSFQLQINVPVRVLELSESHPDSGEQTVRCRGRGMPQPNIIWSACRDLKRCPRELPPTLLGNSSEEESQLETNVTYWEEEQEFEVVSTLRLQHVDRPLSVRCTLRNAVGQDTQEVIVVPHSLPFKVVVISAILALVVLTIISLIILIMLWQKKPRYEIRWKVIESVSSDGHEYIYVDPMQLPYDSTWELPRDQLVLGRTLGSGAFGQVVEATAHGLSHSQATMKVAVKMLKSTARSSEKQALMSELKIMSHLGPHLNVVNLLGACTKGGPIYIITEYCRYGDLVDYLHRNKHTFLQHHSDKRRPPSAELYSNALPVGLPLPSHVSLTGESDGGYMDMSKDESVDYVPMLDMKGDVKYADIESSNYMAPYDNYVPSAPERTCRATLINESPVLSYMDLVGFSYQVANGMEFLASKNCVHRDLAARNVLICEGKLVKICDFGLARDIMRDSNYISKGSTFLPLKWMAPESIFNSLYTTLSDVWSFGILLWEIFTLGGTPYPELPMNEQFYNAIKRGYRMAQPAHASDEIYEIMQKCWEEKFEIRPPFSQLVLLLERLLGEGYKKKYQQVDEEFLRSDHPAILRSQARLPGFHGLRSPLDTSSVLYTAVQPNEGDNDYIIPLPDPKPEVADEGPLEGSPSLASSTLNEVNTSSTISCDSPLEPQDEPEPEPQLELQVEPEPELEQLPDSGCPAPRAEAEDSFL

## COCCOCCOCCOCCOCCOCCOCCNCc1ccc(C(=O)Nc2ccc(C)c(Nc3nccc(-c4cccnc4)n3)c2)cc1
Thermodynamic solubility
  solubility: 3.6 mg/mL (≈ 4.91 mM)
[1]
  Papp A→B at 120 min, 10 μM: 0.4 ± 0.1 nm/s
[1]; Caco-2, ratio of B-A and A-B permeabilities, 10 μM, 120 minutes
  efflux ratio at 120 min, 10 μM: 391
ABL [2]
  IC50: ≥ 3000 nM
ABL [2]; concentration 1.0E−06, imatinib-corresponding compounds
  ABL AVG % Activity at 1.0E−06: 73%
ABL [2]; concentration 1.0E−07, imatinib-corresponding compounds
  ABL AVG % Activity at 1.0E−07: 90%
ABL [2]; concentration 1.0E−08, imatinib-corresponding compounds
  ABL AVG % Activity at 1.0E−08: 94%
ABL [2]; [4]
  ABL AVG % Activity at 1.0E−09: 97%
  ABL AVG % Activity at 1.0E−10: 97%
  ABL AVG % Activity at 3.0E−09: 96%
  ABL AVG % Activity at 3.0E−10: 97%
ABL [2]; concentration 3.0E−06, imatinib-corresponding compounds
  ABL AVG % Activity at 3.0E−06: 59%
ABL [2]; concentration 3.0E−07, imatinib-corresponding compounds
  ABL AVG % Activity at 3.0E−07: 82%
ABL [2]; concentration 3.0E−08, imatinib-corresponding compounds
  ABL AVG % Activity at 3.0E−08: 94%
PDGFRβ
  IC50: 230 nM
PDGFRβ; concentration 1.0E−06
  PDGFR AVG % Activity at 1.0E−06: 13%
PDGFRβ; concentration 1.0E−07
  PDGFR AVG % Activity at 1.0E−07: 67%
PDGFRβ; concentration 1.0E−08
  PDGFR AVG % Activity at 1.0E−08: 96%
PDGFRβ; concentration 1.0E−09
  PDGFR AVG % Activity at 1.0E−09: 93%
PDGFRβ; concentration 1.0E−10
  PDGFR AVG % Activity at 1.0E−10: 97%
PDGFRβ; concentration 3.0E−06
  PDGFR AVG % Activity at 3.0E−06: 0%
PDGFRβ; concentration 3.0E−07
  PDGFR AVG % Activity at 3.0E−07: 39%
PDGFRβ; concentration 3.0E−08
  PDGFR AVG % Activity at 3.0E−08: 100%
PDGFRβ; concentration 3.0E−09
  PDGFR AVG % Activity at 3.0E−09: 99%
PDGFRβ; concentration 3.0E−10
  PDGFR AVG % Activity at 3.0E−10: 93%
cKIT
  IC50: 1000 nM
cKIT; concentration 1.0E−05
  C-kit AVG % Activity at 1.0E−05: 6%
cKIT; concentration 1.0E−06
  C-kit AVG % Activity at 1.0E−06: 50%
cKIT; concentration 1.0E−07
  C-kit AVG % Activity at 1.0E−07: 88%
cKIT; concentration 1.0E−08
  C-kit AVG % Activity at 1.0E−08: 100%
cKIT; concentration 3.0E−05
  C-kit AVG % Activity at 3.0E−05: 1%
cKIT; concentration 3.0E−06
  C-kit AVG % Activity at 3.0E−06: 23%
cKIT; concentration 3.0E−07
  C-kit AVG % Activity at 3.0E−07: 76%
cKIT; concentration 3.0E−08
  C-kit AVG % Activity at 3.0E−08: 95%
cKIT; concentration 3.0E−09
  C-kit AVG % Activity at 3.0E−09: 99%

## COCCOCCOCCOCC(=O)NC(C(=O)OCCN1CCN(c2cc(Nc3ncc(C(=O)Nc4c(C)cccc4Cl)s3)nc(C)n2)CC1)C(C)C (stereo not shown) [mPEG3-Val-Dasatinib]
ABL [2]
  IC50: 0.37 nM
ABL [2]; [5]
  ABL AVG % Activity at 1.0E−09: 10%
  ABL AVG % Activity at 1.0E−10: 85%
  ABL AVG % Activity at 1.0E−11: 98%
  ABL AVG % Activity at 3.0E−09: 0%
  ABL AVG % Activity at 3.0E−10: 54%
  ABL AVG % Activity at 3.0E−11: 95%

## COCCOCCOCCOCCOCCN1CCN(Cc2ccc(C(=O)Nc3ccc(C)c(Nc4nccc(-c5cccnc5)n4)c3)cc2)CC1 [mPEG5-N′-Imatinib]
Thermodynamic solubility
  solubility: 3.3 mg/mL (≈ 4.62 mM)
[1]
  Papp A→B at 120 min, 10 μM: 10 ± 2 nm/s

## COCCOCCOCCOCC(=O)NC(CC(C)C)C(=O)OCCN1CCN(c2cc(Nc3ncc(C(=O)Nc4c(C)cccc4Cl)s3)nc(C)n2)CC1 (stereo not shown) [mPEG3-Leu-Dasatinib]
ABL [2]
  IC50: 0.43 nM
ABL [2]; [5]
  ABL AVG % Activity at 1.0E−09: 14%
  ABL AVG % Activity at 1.0E−10: 85%
  ABL AVG % Activity at 1.0E−11: 99%
  ABL AVG % Activity at 3.0E−09: 1%
  ABL AVG % Activity at 3.0E−10: 62%
  ABL AVG % Activity at 3.0E−11: 97%

## COCCOCCOCCOCCOCCNC(=O)OCCN1CCN(c2cc(Nc3ncc(C(=O)Nc4c(C)cccc4Cl)s3)nc(C)n2)CC1 [mPEG5-NHCOO-Dasatinib]
ABL [2]
  IC50: 0.3 nM
ABL [2]; [5]
  ABL AVG % Activity at 1.0E−09: 4%
  ABL AVG % Activity at 1.0E−10: 80%
  ABL AVG % Activity at 1.0E−11: 97%
  ABL AVG % Activity at 3.0E−09: −1%
  ABL AVG % Activity at 3.0E−10: 45%
  ABL AVG % Activity at 3.0E−11: 94%

## COCCOCCOCCOCCOCCOCCOCCOCCOCCNC(=O)OCCN1CCN(c2cc(Nc3ncc(C(=O)Nc4c(C)cccc4Cl)s3)nc(C)n2)CC1 [mPEG9-NHCOO-Dasatinib]
ABL [2]
  IC50: 0.31 nM
ABL [2]; [5]
  ABL AVG % Activity at 1.0E−09: 4%
  ABL AVG % Activity at 1.0E−10: 80%
  ABL AVG % Activity at 1.0E−11: 97%
  ABL AVG % Activity at 3.0E−09: −1%
  ABL AVG % Activity at 3.0E−10: 47%
  ABL AVG % Activity at 3.0E−11: 92%

## COCCOCCOCCN1CCN(Cc2ccc(C(=O)Nc3ccc(C)c(Nc4nccc(-c5cccnc5)n4)c3)cc2)CC1 [mPEG3-N′-Imatinib]
Thermodynamic solubility
  solubility: 0.5 mg/mL (≈ 0.799 mM)
[1]
  Papp A→B at 120 min, 10 μM: 40 ± 8 nm/s

## COCCOCCOCCOCC(=O)OCCN1CCN(c2cc(Nc3ncc(C(=O)Nc4c(C)cccc4Cl)s3)nc(C)n2)CC1 [mPEG3-COO-Dasatinib]
ABL [3]
  ABL AVG % Activity at 1.0E−09: 2%
  ABL AVG % Activity at 1.0E−10: 80%
  ABL AVG % Activity at 1.0E−11: 98%
  ABL AVG % Activity at 3.0E−09: −1%
  ABL AVG % Activity at 3.0E−10: 44%
  ABL AVG % Activity at 3.0E−11: 92%
ABL [2]
  IC50: 0.29 nM

## COCCOCCOCCNCc1ccc(C(=O)Nc2ccc(C)c(Nc3nccc(-c4cccnc4)n3)c2)cc1 [mPEG3-N-Imatinib]
Thermodynamic solubility
  solubility: 3.3 mg/mL (≈ 5.93 mM)
[1]
  Papp A→B at 120 min, 10 μM: 6 ± 0.7 nm/s
